Measured values reported in PMC9663578, “A fluorogenic probe for predicting treatment response in non-small cell lung cancer with EGFR-activating mutations” (Nature Communications, 2022).
Values joined by “and” are separate entries in the source; they are usually repeats but may differ in a detail not shown here. Equal entries are not always repeated.

How the values were obtained:
[1] = test system: PC-9 cells; assay: MTT cytotoxicity assay; format: cell-based; details: Homo sapiens, EGFR 19del, 48 h, n=3
[2] = test system: A549 cells; assay: FACS assay in cultured cells; details: for HX103 dose-dependent signal (Supplementary Fig. 18): 20 µM = 100
Description: (§1) Briefly, the cultured cells were seeded on the petri dish and counted using Count star BioMed automated cell counter. Around 10^6 live-cells were collected and were pelleted (2000×g, 3 min), followed by washing with PBS (2x). Cells were then resuspended in PBS buffer containing 0.1% BSA (1 × 10^6 cells/mL). […] The cell suspension was resuspended in PBS and analyzed with a FACSVerse^TM flow cytometer (BD Biosciences, LSRFortessa). About 10,000 events per tube were analyzed and the mean fluorescence intensity was detected and analyzed.
(§2) For the FACS assay with EGFR antibody, around 10^6 live-cells were collected and washed with PBS (2x). The cells were fixed by 400 µL 4% paraformaldehyde for 15 min at room temperature, followed by permeabilization with 0.1% Triton X-100 for 10 min and blocking with 5% BSA for 30 min. […] The cells were then washed with 0.5% BSA/PBS (3x) and resuspended in 400 µL of 0.1% BSA/PBS. […] The resuspended cell suspension was then analyzed on a FACSVerseTM flow cytometer (BD Biosciences, LSRFortessa). Nonspecific fluorescence binding was omitted by Rabbit mAb IgG isotype control (#3900, CST, 1:100) and the corresponding mean fluorescence was subtracted from the signal measured with each primary antibody. About 10,000 events per tube were analyzed and the mean fluorescence intensity was detected and analyzed.
(§3) Subsequently, the treated cells were incubated for 30 min at 37 °C, followed by washing with PBS buffer three times. […] Finally, the co-stained cells were washed with 0.5% BSA/PBS for three times and resuspended in 400 µL of 0.1% BSA/PBS. The obtained cell suspension was ready for analysis. Nonspecific fluorescence binding was omitted by Rabbit mAb IgG isotype control (#3900, CST, 1:100) as described above.
(§4) Nonspecific fluorescence binding was omitted by Rabbit mAb IgG isotype control (#3900, CST, 1:100). […] After incubation for another 30 min at room temperature, the co-stained cells were washed with 0.5% BSA/PBS for three times and resuspended in 400 µL of 0.1% BSA/PBS. The obtained cell suspension was ready for analysis. Nonspecific fluorescence binding was omitted by Rabbit mAb IgG isotype control (#3900, CST, 1:100) as described above.
(§5) The cells were seeded on the petri dish and cultured at the normal condition with 10% FBS, and that was changed to serum-free condition for 24 h when the cells proliferated at ~80% confluence. […] Nonspecific fluorescence binding was omitted by Rabbit mAb IgG isotype control (#3900, CST, 1:100) as described above.

[3] = target: T1, EGFR (Homo sapiens, UniProt P00533); assay: Fluorescence spectra of HX103 with EGFR, alone or with competing inhibitors (Fig. 2a); format: binding
T1 construct: Recombinant human EGFR (amino acids 668–1210, #PR7295B); purchased Thermo Fisher PR7295B

[4] = test system: MCF-7 cells; assay: FACS assay in cultured cells
Description: The FACS assay was performed according to the reported literatures[67],[68]. Briefly, the cultured cells were seeded on the petri dish and counted using Count star BioMed automated cell counter. Around 10^6 live-cells were collected and were pelleted (2000×g, 3 min), followed by washing with PBS (2x). Cells were then resuspended in PBS buffer containing 0.1% BSA (1 × 10^6 cells/mL). […] The cell suspension was resuspended in PBS and analyzed with a FACSVerse^TM flow cytometer (BD Biosciences, LSRFortessa). About 10,000 events per tube were analyzed and the mean fluorescence intensity was detected and analyzed.
as §2, §3, §4, §5

[5] = test system: H1975 cells; assay: FACS assay in cultured cells; details: for HX103 dose-dependent signal (Supplementary Fig. 18): 20 µM = 100
Description: as §1, §2, §3, §4, §5

[6] = HX103 5 µM, 30 min, replicates n=1-3

T1 sequence (P00533 668-1210): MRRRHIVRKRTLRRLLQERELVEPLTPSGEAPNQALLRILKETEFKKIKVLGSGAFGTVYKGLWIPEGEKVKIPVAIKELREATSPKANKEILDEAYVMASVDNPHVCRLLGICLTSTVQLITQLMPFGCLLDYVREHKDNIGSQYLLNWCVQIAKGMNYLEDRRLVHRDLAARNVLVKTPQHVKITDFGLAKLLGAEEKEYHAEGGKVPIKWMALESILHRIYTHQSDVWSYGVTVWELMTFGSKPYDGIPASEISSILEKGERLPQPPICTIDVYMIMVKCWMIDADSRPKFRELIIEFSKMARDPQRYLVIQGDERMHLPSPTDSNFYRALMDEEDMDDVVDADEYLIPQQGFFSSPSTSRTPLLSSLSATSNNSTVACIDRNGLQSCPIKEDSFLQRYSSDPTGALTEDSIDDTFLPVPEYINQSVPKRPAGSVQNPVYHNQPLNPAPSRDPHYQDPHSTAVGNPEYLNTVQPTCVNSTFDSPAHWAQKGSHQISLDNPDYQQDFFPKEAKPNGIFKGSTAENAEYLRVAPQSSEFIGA

Fluorescence intensity, HX103+EGFR ([3]; wavelength 666 nm): 3266.47 | Fluorescence intensity, HX103+EGFR ([3]; wavelength 669 nm): 3104.58 | Fluorescence intensity, HX103+EGFR ([3]; wavelength 671 nm): 2932.33 | Fluorescence intensity, HX103+EGFR ([3]; wavelength 673 nm): 2750.71 | Fluorescence intensity, HX103+EGFR ([3]; wavelength 676 nm): 2569.21 | Fluorescence intensity, HX103+EGFR ([3]; wavelength 678 nm): 2397.75 | Fluorescence intensity, HX103+EGFR ([3]; wavelength 681 nm): 2246.21 | Fluorescence intensity, HX103+EGFR ([3]; wavelength 683 nm): 2119.91 | Fluorescence intensity, HX103+EGFR ([3]; wavelength 686 nm): 2016.43 | Fluorescence intensity, HX103+EGFR ([3]; wavelength 688 nm): 1932.61 | Fluorescence intensity, HX103+EGFR ([3]; wavelength 690 nm): 1865.3 | Fluorescence intensity, HX103+EGFR ([3]; wavelength 693 nm): 1811.29 | Fluorescence intensity, HX103+EGFR ([3]; wavelength 695 nm): 1767.27 | Fluorescence intensity, HX103+EGFR ([3]; wavelength 698 nm): 1729.9 | Fluorescence intensity, HX103+EGFR ([3]; wavelength 700 nm): 1695.87
Compound: COc1cc2c(Nc3ccc(F)c(Cl)c3)ncnc2cc1OCCCNc1ccc(S(=O)(=O)N(C)C)c2nonc12 [HX103]
IC50 [1]: 1800 nM | EGFR(+) HX103 (+) (%) AVE ([2]; A549, AVE of n=3): 13.21% | HX103 (+) (%) AVE ([2]; A549, AVE of n=3): 14.4253% | HX103 dose-dependent signal (Supplementary Fig. 18) ([2]; A549, HX103 0.04 µM): 1.227 and 1.64 and 1.474 | HX103 dose-dependent signal (Supplementary Fig. 18) ([2]; A549, HX103 0.37 µM): 16.7962 and 13.0237 and 14.9399 | HX103 dose-dependent signal (Supplementary Fig. 18) ([2]; A549, HX103 1.1 µM): 32.8472 and 24.022 and 28.4446 | HX103 dose-dependent signal (Supplementary Fig. 18) ([2]; A549, HX103 3.3 µM): 43.6352 and 41.2034 and 42.4293 | HX103 dose-dependent signal (Supplementary Fig. 18) ([2]; A549, HX103 10 µM): 71.5104 and 62.9379 and 67.2341 | HX103 dose-dependent signal (Supplementary Fig. 18) ([2]; A549, HX103 15 µM): 96.2656 and 89.3616 and 85.8336 | HX103 dose-dependent signal (Supplementary Fig. 18) ([2]; A549, HX103 20 µM): 100 | HX103 signal (Supplementary Fig. 7) ([2]; A549, HX103 alone or with Gefitinib, replicates n=1-3): 102.046 and 98.7743 and 99.18 | EGFR(+) HX103 (+) (%) ([2]; A549, replicates n=1-3): 7.43% and 15.21% and 16.99% | HX103(+) (%) ([2]; A549, replicates n=1-3): 14.626% and 17.32% and 11.33% | normalized MFI of HX103 labeling [2, 6]: 51.9313% and 58.1545% and 55.0429% | EGFR(+) HX103 (+) (%) ([2]; HX103 5 µM, replicates n=1-3): 15.21% and 16.99% and 7.43% | normalized MFI of HX103 labeling [4, 6]: 25.1073% and 53.6481% and 30.8069% | EGFR(+) HX103 (+) (%) ([4]; HX103 5 µM, replicates n=1-3): 0.04% and 0.02% and 0.09% | EGFR(+) HX103 (+) (%) AVE ([4]; MCF-7, AVE of n=3): 0.05% | HX103 (+) (%) AVE ([4]; MCF-7, AVE of n=3): 0.5297% | EGFR(+) HX103 (+) (%) ([4]; MCF-7, replicates n=1-3): 0.09% and 0.04% and 0.02% | HX103(+) (%) ([4]; MCF-7, replicates n=1-3): -0.051% and 1.21% and 0.43% | EGFR(+) HX103 (+) (%) AVE ([5]; H1975, AVE of n=3): 82.37% | HX103 (+) (%) AVE ([5]; H1975, AVE of n=3): 87.9667% | HX103 dose-dependent signal (Supplementary Fig. 18) ([5]; H1975, HX103 0.04 µM): 2.425 and 4.214 and 3.319 | HX103 dose-dependent signal (Supplementary Fig. 18) ([5]; H1975, HX103 0.37 µM): 11.9338 and 12.3486 and 12.1512 | HX103 dose-dependent signal (Supplementary Fig. 18) ([5]; H1975, HX103 1.1 µM): 36.5652 and 42.2419 and 39.4086 | HX103 dose-dependent signal (Supplementary Fig. 18) ([5]; H1975, HX103 3.3 µM): 51.8347 and 43.4647 and 47.0457 | HX103 dose-dependent signal (Supplementary Fig. 18) ([5]; H1975, HX103 10 µM): 81.1792 and 74.1549 and 77.687 | HX103 dose-dependent signal (Supplementary Fig. 18) ([5]; H1975, HX103 15 µM): 93.412 and 78.0323 and 85.7212 | HX103 dose-dependent signal (Supplementary Fig. 18) ([5]; H1975, HX103 20 µM): 100 | HX103 signal (Supplementary Fig. 7) ([5]; H1975, HX103 alone or with Gefitinib, replicates n=1-3): 118.617 and 81.9826 and 99.4 | EGFR(+) HX103 (+) (%) ([5]; H1975, replicates n=1-3): 74.3% and 85.37% and 87.44% | HX103(+) (%) ([5]; H1975, replicates n=1-3): 98.62% and 87.52% and 77.76% | normalized MFI of HX103 labeling [5, 6]: 81.9742% and 118.026% and 100% | EGFR(+) HX103 (+) (%) ([5]; HX103 5 µM, replicates n=1-3): 85.37% and 87.44% and 74.3%
